The compounds below were run against PIK3CD (Human) (UniProt O00329) (assay: Assessment of PIK3CD Kinase Activity (Scintillation Proximity Assay)).
PIK3CD (Human), sequence (O00329 whole entry, looked up): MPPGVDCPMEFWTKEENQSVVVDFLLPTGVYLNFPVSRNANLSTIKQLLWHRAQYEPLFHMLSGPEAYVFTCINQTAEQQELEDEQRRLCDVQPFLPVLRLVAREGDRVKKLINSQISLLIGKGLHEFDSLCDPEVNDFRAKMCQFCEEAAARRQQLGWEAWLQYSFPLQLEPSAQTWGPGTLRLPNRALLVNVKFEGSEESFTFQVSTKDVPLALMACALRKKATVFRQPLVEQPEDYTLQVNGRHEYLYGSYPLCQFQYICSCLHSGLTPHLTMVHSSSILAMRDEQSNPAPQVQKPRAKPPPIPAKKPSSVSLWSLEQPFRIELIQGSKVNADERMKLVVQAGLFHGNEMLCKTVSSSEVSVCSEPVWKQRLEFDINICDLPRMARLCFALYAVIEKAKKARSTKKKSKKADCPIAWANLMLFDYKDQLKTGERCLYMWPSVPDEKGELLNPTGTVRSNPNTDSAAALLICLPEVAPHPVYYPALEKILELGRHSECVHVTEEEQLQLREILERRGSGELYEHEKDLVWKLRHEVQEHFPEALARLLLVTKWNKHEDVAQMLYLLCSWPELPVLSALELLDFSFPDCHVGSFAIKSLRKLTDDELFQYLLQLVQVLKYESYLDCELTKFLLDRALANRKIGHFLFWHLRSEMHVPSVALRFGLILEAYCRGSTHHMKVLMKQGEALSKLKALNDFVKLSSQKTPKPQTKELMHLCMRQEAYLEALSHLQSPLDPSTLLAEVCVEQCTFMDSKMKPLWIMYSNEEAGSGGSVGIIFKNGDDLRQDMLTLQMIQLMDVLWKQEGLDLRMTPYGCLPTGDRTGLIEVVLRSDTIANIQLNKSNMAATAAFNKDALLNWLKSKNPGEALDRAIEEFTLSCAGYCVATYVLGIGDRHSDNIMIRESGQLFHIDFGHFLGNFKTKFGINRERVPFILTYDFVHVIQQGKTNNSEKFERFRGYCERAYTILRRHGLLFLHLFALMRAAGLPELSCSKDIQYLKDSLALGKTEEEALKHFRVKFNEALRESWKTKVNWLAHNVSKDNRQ

| Compound | IC50 [nM] |
| --- | --- |
| COc1c(C(C)n2nc(C)c3c(N)ncnc32)cc(Cl)c(C)c1-c1cncc(S(C)(=O)=O)c1 (centres undefined) | ≤ 10 |
| COc1c(C(C)n2nc(C)c3c(N)ncnc32)cc(Cl)c(C)c1-c1ccc(N(C)C)nc1 (centres undefined) | ≤ 10 |
| CCOc1c(C(C)n2nc(C(F)F)c3c(N)ncnc32)cc(Cl)c(F)c1C1CN(C)C1 (centres undefined) | ≤ 10 |
| CCOc1c(C(C)n2nc(C)c3c(N)ncnc32)cc(Cl)c(C#N)c1C1CN(CC)C1 (centres undefined) | ≤ 10 |
| COc1c(C(C)n2nc(C)c3c(N)ncnc32)cc(C#N)c(C)c1-c1ccnc(C(=O)N(C)CCO)c1 (centres undefined) | 10 to 50 |
| COc1c(C(C)n2nc(C)c3c(N)ncnc32)cc(Cl)c(C)c1-c1cnn(CCO)c1 (centres undefined) | ≤ 10 |
| CCOc1c(C(C)n2nc(C)c3c(N)ncnc32)cc(Cl)c(C#N)c1C1CN(CCOC)C1 (centres undefined) | ≤ 10 |
| CCOc1c(C(C)n2cc(C)c3c(N)ncnc32)cc(Cl)c(C#N)c1C1CN(CCO)C1 (centres undefined) | ≤ 10 |
| CCOc1c(C(C)n2nc(C)c3c(N)ncnc32)cc(Cl)c(C#N)c1C1CN(C(C)(C)C(N)=O)C1 (centres undefined) | ≤ 10 |
| COc1c(C(C)n2nc(C)c3c(N)ncnc32)cc(Cl)c(C#N)c1C1CN(C(=O)NC(C)(C)C)C1 (centres undefined) | ≤ 10 |
| COc1c(C(C)n2nc(C)c3c(N)ncnc32)cc(Cl)c(C)c1-c1ccc(OCCO)nc1 (centres undefined) | ≤ 10 |
| COc1c(C(C)n2nc(C)c3c(N)ncnc32)cc(Cl)c(C)c1C1CN(CC(N)=O)C1 (centres undefined) | ≤ 10 |
| COc1c(C(C)n2nc(C)c3c(N)ncnc32)cc(Cl)c(C)c1C1CN(C2(CC#N)CCC2)C1 (centres undefined) | ≤ 10 |
| CCOc1c(C(C)n2ccc(=O)c3c(N)ncnc32)cc(Cl)c(C#N)c1-c1ccc(C(=O)N(C)C)nc1 (centres undefined) | ≤ 10 |
| COc1c(C(C)n2nc(C(F)F)c3c(N)ncnc32)cc(Cl)c(F)c1C1CN(C)C1 (centres undefined) | ≤ 10 |
| CCOc1c(C(C)n2nc(C)c3c(N)ncnc32)cc(Cl)c(C)c1C1CN(C(=O)[C@@H](C)O)C1 (some centres undefined) | ≤ 10 |
| COc1c(C(C)n2nc(C)c3c(N)ncnc32)cc(Cl)c(F)c1C1CN(C[C@H](C)O)C1 (some centres undefined) | ≤ 10 |
| CCOc1c(C(C)n2nc(C)c3c(N)ncnc32)cc(Cl)c(C#N)c1-c1cncc(S(C)(=O)=O)c1 (centres undefined) | ≤ 10 |
| CCOc1c(C(C)n2nc(C)c3c(N)ncnc32)cc(Cl)c(C#N)c1C1CN(S(=O)(=O)CC)C1 (centres undefined) | ≤ 10 |
| CCNC(=O)N1CC(c2c(C#N)c(Cl)cc(C(C)n3nc(C)c4c(N)ncnc43)c2OC)C1 (centres undefined) | ≤ 10 |
| CCOc1c(C(C)n2nc(C3CC3)c3c(N)ncnc32)cc(Cl)c(C)c1-c1ccc(C(=O)N(C)C)nc1 (centres undefined) | ≤ 10 |
| CCOc1c(C(C)n2nc(C)c3c(N)ncnc32)cc(Cl)c(C)c1-c1ccc(C(=O)N(C)C)nc1 (centres undefined) | ≤ 10 |

| Compound | IC50 [nM] |
| --- | --- |
| COc1c(C(C)n2nc(C)c3c(N)ncnc32)cc(Cl)c(C)c1-c1cnn(CCN(C)C)c1 (centres undefined) | ≤ 10 |
| CNC(=O)[C@@H](C)N1CC(c2c(C)c(Cl)cc(C(C)n3nc(C)c4c(N)ncnc43)c2OC)C1 (some centres undefined) | ≤ 10 |
| COc1c(C(C)n2nc(C)c3c(N)ncnc32)cc(Cl)c(C)c1C1CCN(CC(C)(C)O)CC1 (centres undefined) | ≤ 10 |
| COc1c(C(C)n2nc(C)c3c(N)ncnc32)cc(Cl)c(C)c1C1CN(C)C1 (centres undefined) | ≤ 10 |
| CCOc1c(C(C)n2nc(C)c3c(N)ncnc32)cc(Cl)c(C#N)c1C1CN(S(=O)(=O)C(C)C)C1 (centres undefined) | ≤ 10 |
| CCOc1c(C(C)n2nc(C)c3c(N)ncnc32)cc(Cl)c(C)c1C1CNC(=O)C1 (centres undefined) | ≤ 10 |
| CCOc1c(C(C)n2nc(C)c3c(N)ncnc32)cc(Cl)c(C#N)c1-c1ccc(-c2nnn(C)n2)nc1 (centres undefined) | ≤ 10 |
| CCOc1c(C(C)n2nc(C)c3c(N)ncnc32)cc(Cl)c(C#N)c1C1CN(C(=O)N(C)C)C1 (centres undefined) | ≤ 10 |
| COc1c(C(C)n2nc(C(F)F)c3c(N)ncnc32)cc(C#N)c(C)c1C1CN(CC(C)(C)O)C1 (centres undefined) | ≤ 10 |
| COc1c(C(C)n2nc(C)c3c(N)ncnc32)cc(Cl)c(C)c1C1CNC(=O)CO1 (centres undefined) | ≤ 10 |
| COc1c(C(C)n2nc(C)c3c(N)ncnc32)cc(Cl)c(C#N)c1C1CN(S(=O)(=O)C2CC2)C1 (centres undefined) | ≤ 10 |
| COc1c(C(C)n2nc(C)c3c(N)ncnc32)cc(Cl)c(C)c1-c1cncc(C#N)c1 (centres undefined) | ≤ 10 |
| COc1c(C(C)n2nc(C(F)F)c3c(N)ncnc32)cc(C#N)c(F)c1C1CN(CCO)C1 (centres undefined) | ≤ 10 |
| COc1c(C(C)n2nc(C)c3c(N)ncnc32)cc(Cl)c(C)c1-c1cncc(C(=O)N(C)CCO)c1 (centres undefined) | ≤ 10 |
| COc1c(C(C)n2nc(C)c3c(N)ncnc32)cc(Cl)c(C)c1-c1cnn(C2CCN(C)CC2)c1 (centres undefined) | ≤ 10 |
| COc1c(C(C)n2nc(C)c3c(N)ncnc32)cc(Cl)c(C#N)c1-c1ccc(C(=O)N(C)C)nc1 (centres undefined) | ≤ 10 |
| COc1c(C(C)n2nc(C)c3c(N)ncnc32)cc(Cl)c(C#N)c1C1CN(CC2CC2)C1 (centres undefined) | ≤ 10 |
| COc1c(C(C)n2nc(C)c3c(N)ncnc32)cc(Cl)c(C#N)c1C1CN(C(N)=O)C1 (centres undefined) | ≤ 10 |
| CCOc1c(C(C)n2nc(C)c3c(N)ncnc32)cc(Cl)c(C)c1C#N (centres undefined) | ≤ 10 |
| CCOc1c(C(C)n2nc(CF)c3c(N)ncnc32)cc(Cl)c(C)c1-c1ccc(C(=O)N(C)C)nc1 (centres undefined) | ≤ 10 |
| CCOc1c(C(C)n2nc(C)c3c(N)ncnc32)cc(Cl)c(C)c1C1CN(CC(C)(C)O)C1 (centres undefined) | ≤ 10 |
| COc1c(C(C)n2nc(C)c3c(N)ncnc32)cc(Cl)c(C)c1C1CN(CCO)C1 (centres undefined) | ≤ 10 |
